Among the data in US10189836B2, “Therapeutic compounds, compositions and methods of use thereof” (Genentech, Inc., priority 2015, dated 2019) are Ki values, retold here.

Test [1] has as its target isolated recombinant JAK2 kinase domain (Homo sapiens (Human), UniProt O60674). Put plainly: JAK2 enzyme assay (Caliper LabChip, Ki). The conditions noted are these: isolated recombinant JAK2 kinase domain, 0.2 nM enzyme, ATP 25 μM. The format is biochemical.
In test [2] the target is isolated recombinant JAK1 kinase domain (Homo sapiens (Human), UniProt P23458). Put plainly: JAK1 enzyme assay (Caliper LabChip, Ki). Type of test: biochemical. To be noted: isolated recombinant JAK1 kinase domain, 1.5 nM enzyme, ATP 25 μM.
Sequence of isolated recombinant JAK1 kinase domain (P23458 875-1153): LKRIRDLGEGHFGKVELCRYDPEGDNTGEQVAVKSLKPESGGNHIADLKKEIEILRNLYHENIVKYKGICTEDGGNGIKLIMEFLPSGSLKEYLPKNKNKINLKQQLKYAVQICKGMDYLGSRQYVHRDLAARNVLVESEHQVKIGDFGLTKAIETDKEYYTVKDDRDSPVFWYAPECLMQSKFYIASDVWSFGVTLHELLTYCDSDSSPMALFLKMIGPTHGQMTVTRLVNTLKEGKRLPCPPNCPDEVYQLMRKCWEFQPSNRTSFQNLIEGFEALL

Sequence of isolated recombinant JAK2 kinase domain (O60674 849-1124): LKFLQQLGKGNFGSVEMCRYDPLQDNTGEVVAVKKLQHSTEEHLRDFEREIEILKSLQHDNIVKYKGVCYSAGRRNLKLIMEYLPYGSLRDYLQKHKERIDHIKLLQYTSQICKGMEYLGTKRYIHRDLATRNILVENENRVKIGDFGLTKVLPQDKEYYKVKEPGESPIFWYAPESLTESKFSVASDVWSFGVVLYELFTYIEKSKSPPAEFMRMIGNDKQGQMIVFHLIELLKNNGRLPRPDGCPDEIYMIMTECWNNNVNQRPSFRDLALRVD

Take `CN1CCN(C(=O)Cn2cc(Nc3nc4c(N5CC6CCC(C5)N6C(=O)C(C)(C)CC(F)(F)F)cccn4n3)cn2)CC1` [Example 71, 4,4,4-trifluoro-2,2-dimethyl-1-[3-[2-[[1-[2-(4-methylpiperazin-1-yl)-2-oxo-ethyl]pyrazol-4-yl]amino]-[1,2,4]triazolo[1,5-a]pyridin-8-yl]-3,8-diazabicyclo[3.2.1]octan-8-yl]butan-1-one]: the Ki in test [1] and in test [2] was 1.8 nM in each case.

Turning to `O=C(Cn1cc(Nc2nc3c(N4CC5CCC(C4)N5C(=O)CCC(F)(F)F)cccn3n2)cn1)N1CCC(N2CCOCC2)CC1` [Example 74, 4,4,4-trifluoro-1-[3-[2-[[1-[2-(4-morpholino-1-piperidyl)-2-oxo-ethyl]pyrazol-4-yl]amino]-[1,2,4]triazolo[1,5-a]pyridin-8-yl]-3,8-diazabicyclo[3.2.1]octan-8-yl]butan-1-one], the Ki (usually a dissociation constant, usually derived from enzyme kinetics or from competition with a known ligand) in test [1] stood at 2.7 nM; in test [2], 1 nM.

As to `CN(C)C(=O)CN1CCN(CC2CCN(C(=O)Cn3cc(Nc4nc5c(N6CC7CCC(C6)N7C(=O)CCC(F)(F)F)cccn5n4)cn3)CC2)CC1` [Example 75, N,N-dimethyl-2-[4-[[1-[2-[4-[[8-[8-(4,4,4-trifluorobutanoyl)-3,8-diazabicyclo[3.2.1]octan-3-yl]-[1,2,4]triazolo[1,5-a]pyridin-2-yl]amino]pyrazol-1-yl]acetyl]-4-piperidyl]methyl]piperazin-1-yl]acetamide], the results for the Ki in test [1] and in test [2] were 3.9 nM and 1.4 nM, respectively.

Turning to `CN1CCN(C(=O)Cn2cc(Nc3nc4c(N5CC6CCC(C5)N6C(=O)c5cccs5)cccn4n3)cn2)CC1` [Example 76, 1-(4-methylpiperazin-1-yl)-2-[4-[[8-[8-(thiophene-2-carbonyl)-3,8-diazabicyclo[3.2.1]octan-3-yl]-[1,2,4]triazolo[1,5-a]pyridin-2-yl]amino]pyrazol-1-yl]ethanone], the results for the Ki in test [1] and in test [2] were 1.3 nM and 0.8 nM, respectively.

As to `CN1CCN(C(=O)Cn2cc(Nc3nc4c(N5CC6CCC(C5)N6C(=O)CC(C)(C)C(F)(F)F)cccn4n3)cn2)CC1` [Example 77, 4,4,4-trifluoro-3,3-dimethyl-1-[3-[2-[[1-[2-(4-methylpiperazin-1-yl)-2-oxo-ethyl]pyrazol-4-yl]amino]-[1,2,4]triazolo[1,5-a]pyridin-8-yl]-3,8-diazabicyclo[3.2.1]octan-8-yl]butan-1-one], the Ki in test [1] is 2.3 nM; in test [2], 1.7 nM.

For `CN1CCN(C(=O)Cn2cc(Nc3nc4c(N5CC6CCC(C5)N6C(=O)c5cncs5)cccn4n3)cn2)CC1` [Example 78, 1-(4-methylpiperazin-1-yl)-2-[4-[[8-[8-(thiazole-5-carbonyl)-3,8-diazabicyclo[3.2.1]octan-3-yl]-[1,2,4]triazolo[1,5-a]pyridin-2-yl]amino]pyrazol-1-yl]ethanone], the Ki in test [1] is 1.3 nM; in test [2] it was 0.8 nM.

For the compound `COC(=O)N1CCN(CC2CCN(C(=O)Cn3cc(Nc4nc5c(N6CC7CCC(C6)N7C(=O)CCC(F)(F)F)cccn5n4)cn3)CC2)CC1` [Example 79, methyl 4-[[1-[2-[4-[[8-[8-(4,4,4-trifluorobutanoyl)-3,8-diazabicyclo[3.2.1]octan-3-yl]-[1,2,4]triazolo[1,5-a]pyridin-2-yl]amino]pyrazol-1-yl]acetyl]-4-piperidyl]methyl]piperazine-1-carboxylate], the results for the Ki in test [1] and in test [2] were 1.6 nM and 0.8 nM, respectively.

As for `COC(=O)C1C2CCC1CN(c1cccn3nc(Nc4cnn(CC(=O)N5CCN(C)CC5)c4)nc13)C2` (centres unmarked) [Example 80, methyl 3-[2-[[1-[2-(4-methylpiperazin-1-yl)-2-oxo-ethyl]pyrazol-4-yl]amino]-[1,2,4]triazolo[1,5-a]pyridin-8-yl]-3-azabicyclo[3.2.1]octane-8-carboxylate], the Ki in test [1] was 3.1 nM; in test [2], 1.5 nM.

Turning to `CN(C)C(=O)CN1CCN(CC2CCN(C(=O)Cn3cc(Nc4nc5c(N6CC7CCC(C6)N7C(=O)N6CC(C(F)(F)F)C6)cccn5n4)cn3)CC2)CC1` [Example 81, N,N-dimethyl-2-[4-[[1-[2-[4-[[8-[8-[3-(trifluoromethyl)azetidine-1-carbonyl]-3,8-diazabicyclo[3.2.1]octan-3-yl]-[1,2,4]triazolo[1,5-a]pyridin-2-yl]amino]pyrazol-1-yl]acetyl]-4-piperidyl]methyl]piperazin-1-yl]acetamide], the Ki in test [1] amounted to 0.8 nM; in test [2] it was 1 nM.

`O=C(Cn1cc(Nc2nc3c(N4CC5CCC(C4)N5C(=O)[C@H]4C[C@@H](C(F)(F)F)C4)cccn3n2)cn1)N1CCN(C2CSC2)CC1` [Example 82]: the Ki amounted to 0.3 nM in test [1] and 0.4 nM in test [2].

Turning to `O=C(Cn1cc(Nc2nc3c(N4CC5CCC(C4)N5C(=O)[C@H]4C[C@H](C(F)(F)F)C4)cccn3n2)cn1)N1CCN(C2CSC2)CC1` [Example 83, 1-[4-(thietan-3-yl)piperazin-1-yl]-2-[4-[[8-[8-[3-(trifluoromethyl)cyclo-butanecarbonyl]-3,8-diazabicyclo[3.2.1]octan-3-yl]-[1,2,4]triazolo[1,5-a]pyridin-2-yl]amino]pyrazol-1-yl]ethanone], the figures for the Ki in test [1] and in test [2] were 4 nM and 1.6 nM, respectively.

For `CN1CCN(C(=O)Cn2cc(Nc3nc4c(N5C[C@H]6CC[C@@H](C5)[C@H]6OCc5cccnc5)cccn4n3)cn2)CC1` [Example 84, 1-(4-methylpiperazin-1-yl)-2-[4-[[8-[(1S,5R)-8-(3-pyridylmethoxy)-3-azabicyclo[3.2.1]octan-3-yl]-[1,2,4]triazolo[1,5-a]pyridin-2-yl]amino]pyrazol-1-yl]ethanone], the inhibitory constant (Ki) in test [1] stood at 0.8 nM; in test [2], 0.4 nM.

For the compound `CN1CCN(C(=O)Cn2cc(Nc3nc4c(N5CC6CCC(C5)N6Cc5ccccc5)cccn4n3)cn2)CC1` [Example 86, 2-[4-[[8-(8-benzyl-3,8-diazabicyclo[3.2.1]octan-3-yl)-[1,2,4]triazolo[1,5-a]alpyridin-2-yl]amino]pyrazol-1-yl]-1-(4-methylpiperazin-1-yl)ethanone], the results for the Ki in test [1] and in test [2] were 105 nM and 19.2 nM, respectively.

For the compound `CN1CCN(C(=O)Cn2cc(Nc3nc4c(N5CC6CCC(C5)N6C(=O)c5ccns5)cccn4n3)cn2)CC1` [Example 87, 2-[4-[[8-[8-(isothiazole-5-carbonyl)-3,8-diazabicyclo[3.2.1]octan-3-yl]-[1,2,4]triazolo[1,5-a]pyridin-2-yl]amino]pyrazol-1-yl]-1-(4-methylpiperazin-1-yl)ethanone], the Ki in test [1] stood at 0.9 nM; in test [2] it was 0.6 nM.

For `CN1CCN(C(=O)Cn2cc(Nc3nc4c(N5CC6CCC(C5)N6S(=O)(=O)c5cccc(Cl)c5)cccn4n3)cn2)CC1` [Example 88, 2-[4-[[8-[8-(3-chlorophenyl)sulfonyl-3,8-diazabicyclo[3.2.1]octan-3-yl]-[1,2,4]triazolo[1,5-a]pyridin-2-yl]amino]pyrazol-1-yl]-1 - (4-methylpiperazin-1-yl)ethanone], the Ki in test [1] and in test [2] was 0.3 nM throughout.

`CN1CCN(C(=O)Cn2cc(Nc3nc4c(N5CC6CCC(C5)N6C(=O)c5ccc(Cl)cc5)cccn4n3)cn2)CC1` [Example 89]: the Ki stood at 13.4 nM in test [1] and 3.1 nM in test [2].

For the compound `CN1CCN(C(=O)Cn2cc(Nc3nc4c(N5CC6CCC(C5)N6C(=O)c5cccc(Cl)c5)cccn4n3)cn2)CC1` [Example 90, 2-[4-[[8-[8-(3-chlorobenzoyl)-3,8-diazabicyclo[3.2.1]octan-3-yl]-[1,2,4]triazolo[1,5-a]pyridin-2-yl]amino]pyrazol-1-yl]-1-(4-methylpiperazin-1-yl)ethanone], the values for the Ki in test [1] and in test [2] were 2.3 nM and 0.8 nM, respectively.

Consider `CN1CCN(C(=O)Cn2cc(Nc3nc4c(N5CC6CCC(C5)N6C(=O)CC5CC(F)(F)C5(F)F)cccn4n3)cn2)CC1` (centres unmarked) [Example 91, 1-[3-[2-[[1-[2-(4-methylpiperazin-1-yl)-2-oxo-ethyl]pyrazol-4-yl]amino]-[1,2,4]triazolo[1,5-a]alpyridin-8-yl]-3,8-diazabicyclo[3.2.1]octan-8-yl]-2(2,2,3,3-tetrafluorocyclobutyl) ethanone], for which the Ki in test [1] is 0.9 nM; in test [2], 0.8 nM.

As to `CN1CCN(C(=O)Cn2cc(Nc3nc4c(N5CC6CCC(C5)N6C(=O)C5CC(C#N)C5)cccn4n3)cn2)CC1` (centres unmarked) [Example 92, 3-[3-[2-[[1-[2-(4-methylpiperazin-1-yl)-2-oxo-ethyl]pyrazol-4-yl]amino]-[1,2,4]triazolo[1,5-a]pyridin-8-yl]-3,8-diazabicyclo[3.2.1]octane-8-carbonyl]cyclo-butanecarbonitrile], the figures for the Ki in test [1] and in test [2] were 1.7 nM and 0.9 nM, respectively.

Take `CN1CCN(C(=O)Cn2cc(Nc3nc4c(N5CC6CCC(C5)N6S(=O)(=O)c5ccc(Cl)cc5)cccn4n3)cn2)CC1` [Example 93, 2-[4-[[8-[8-(4-chlorophenyl)sulfonyl-3,8-diazabicyclo[3.2.1]octan-3-yl]-[1,2,4]triazolo[1,5-a]pyridin-2-yl]amino]pyrazol-1-yl]-1-(4-methylpiperazin-1-yl)ethanone]: the Ki amounted to 0.8 nM in test [1] and 0.3 nM in test [2].

`O=C(Cn1cc(Nc2nc3c(N4CC5CCC(C4)N5C(=O)N4CC(C(F)(F)F)C4)cccn3n2)cn1)N1CCN(C2CSC2)CC1` [Example 94, 1-[4-(thietan-3-yl)piperazin-1-yl]-2-[4-[[8-[8-[3-(trifluoromethyl)azetidine-1-carbonyl]-3,8-diazabicyclo[3.2.1]octan-3-yl]-[1,2,4]triazolo[1,5-a]pyridin-2-yl]amino]pyrazol-1-yl]ethanone]: the inhibition constant Ki in test [1] was 0.4 nM; in test [2], 0.6 nM.

As for `CN1CCN(C(=O)Cn2cc(Nc3nc4c(N5C[C@H]6CC[C@@H](C5)[C@H]6OCc5cnn(C)c5)cccn4n3)cn2)CC1` [Example 95, 1-(4-methylpiperazin-1-yl)-2-[4-[[8-[(1S,5R)-8-[(1-methylpyrazol-4-yl)methoxy]-3-azabicyclo[3.2.1]octan-3-yl]-[1,2,4]triazolo[1,5-a]pyridin-2-yl]amino]pyrazol-1-yl]ethanone], the Ki in test [1] turned out to be 5 nM; in test [2] it was 2.3 nM.
